Source: article PMC8868508, “Kassporin-KS1: A Novel Pentadecapeptide from the Skin Secretion of Kassina senegalensis: Studies on the Structure-Activity Relationships of Site-Specific “Glycine-Lysine” Motif Insertions” (Antibiotics, 2022)
Where two headings read alike, the source gives them in different places. Where a SMILES comes first, the peptide text is derived from it.

Legend:
P. aeruginosa ATCC 27853 = type: cell-based, Pseudomonas aeruginosa
Protocol: (§1) The inhibition of representative microorganisms by peptides was evaluated by the modified broth dilution technique. The microorganisms included Candida albicans (C. albicans, NCTC 10231), Enterococcus faecalis (E. faecalis, NCTC 12697), Staphylococcus aureus (S. aureus, NCTC 10788), Klebsiella pneumoniae (K. pneumoniae, ATCC 43816), Methicillin-resistant Staphylococcus aureus (MRSA, ATCC 12493), Pseudomonas aeruginosa (P. aeruginosa, ATCC 27853), and Escherichia coli (E. coli, NCTC 10418).
(§2) Firstly, the selected microorganism was incubated in conical flasks with 100 mL Mueller Hinton broth (MHB) overnight. Then, the bacterial solution was sub-cultured in 20 mL MHB until it reached the logarithmic growth phase. Meanwhile, the peptide solution was prepared. The peptide was dissolved into 128 × 10^2 μM solution with phosphate-buffered saline (PBS) and then double-diluted into 64, 32, 16, 8, 4, 2, and 1 × 10^2 μM. Each sample solution and positive control ([…] Norfloxacin) was added to 96-well plates and divided into five replicates, 1 μL per well. The blank control was 100 µL MHB, and the growth control was 100 µL bacterial solutions. When the optical density (OD) value corresponding to the microbial concentration reached the value (Gram-positive bacteria: 0.23; Gram-negative bacteria: 0.4; fungi: 0.15) in their logarithmic growth phase, the microorganisms were diluted to the required concentration with MHB (Gram-negative and Gram-positive bacteria: 5 × 10^5 CFU/mL; fungi: 1 × 10^6 CFU/mL).
(§3) The diluted bacterial solution was then added to the 96-well plate at 99 µL per well. The plate was incubated at 37 °C and observed the next day. The MIC was the corresponding lowest peptide concentration without microbial growth. The absorbance of the 96-well plate at 550 nm was measured by Synergy HT Microplate Spectrophotometer (Biotech, Minneapolis, MN, USA), and the obtained values were quantitatively analyzed by Prism 7 software. Subsequently, the concentrations corresponding to the clear solution were removed from the 96-well plate in 10 µL and dropped onto the solidified MHA. The Petri dishes with MHA were cultured overnight, observed and the minimum peptide concentration without colonies was MBC.

[1] = test system: E. coli NCTC 10418 biofilm; type: cell-based, Escherichia coli; conditions: NCTC 10418, 24 h
Protocol: (§4) As previously described, the MBIC and MBEC of the peptides against bacteria were determined. Staphylococcus aureus (S. aureus, NCTC 10788) and Escherichia coli (E. coli, NCTC 10418) was selected as representative strains. For the MBIC assay, the cultures were sub-cultured to their logarithmic growth phases. The diluted bacterial suspension was incubated with the peptide solution overnight in a 96-well plate. The resulting biofilm was washed with PBS solution, fixed with methanol, and dried. The biofilm was then stained with 0.1% (w/v) crystal violet, washed again with PBS, and dissolved in 30% acetic acid. The absorbance of the solution in each well at 595 nm was counted by the Synergy HT Microplate Spectrophotometer (Biotech, Minneapolis, MN, USA). Compared with the negative control, the lowest concentration that inhibits biofilm formation was MBIC. For the determination of MBEC, the diluted bacterial solution was incubated in the 96-well plate for 24 h, with 100 µL per well. Then, the biofilm was washed and re-incubated with 100 µL peptide-medium solution. After 24 h, the biofilm was again washed, stained, and dissolved as in the MBIC assay. Each well was detected at 595 nm by the same plate reader in MBIC. Compared with the negative control, the lowest concentration to eliminate biofilm was MBEC.

C. albicans NCTC 10231 = type: cell-based, Candida albicans
Protocol: as §1, §2, §3

E. coli NCTC 10418 = type: cell-based, Escherichia coli
Protocol: as §1, §2, §3

[2] = test system: S. aureus NCTC 10788 biofilm; type: cell-based, Staphylococcus aureus; conditions: NCTC 10788, 24 h
Protocol: as §4

E. faecalis NCTC 12697 = type: cell-based, Enterococcus faecalis
Protocol: as §1, §2, §3

MRSA NCTC 12493 = type: cell-based, Methicillin-resistant Staphylococcus aureus
K. pneumoniae ATCC 43816 = type: cell-based, Klebsiella pneumoniae
Protocol: as §1, §2, §3

S. aureus NCTC 10788 [3] = type: cell-based, Staphylococcus aureus
Protocol: as §1, §2, §3

S. aureus NCTC 10788 [4] = type: cell-based, Staphylococcus aureus; remark: listed apart in the source
Protocol: As mentioned in the previous study, the salt and pH sensitivities of AMPs exposed to physiological concentrations of salts or non-neutral environments were tested. MHB containing different ion concentrations (150 mM NaCl, 1 mM MgCl2, and 4 μM FeCl3) and MHB with pH 6.0 and pH 8.0 were prepared. The selected microorganism Staphylococcus aureus (S. aureus, NCTC 10788) was incubated overnight in the prepared medium, sub-cultured to the logarithmic phase, and then diluted to 5 × 10^5 CFU/mL. The subsequent steps were carried out as the MIC/MBC assay.

CC[C@H](C)[C@H](NC(=O)[C@H](C)NC(=O)[C@H](CCC(=O)O)NC(=O)[C@H](CCC(N)=O)NC(=O)[C@H](CCCCN)NC(=O)CNC(=O)[C@H](C)NC(=O)[C@H](CC(C)C)NC(=O)[C@H](C)NC(=O)[C@H](CC(C)C)NC(=O)[C@@H](N)Cc1ccccc1)C(=O)N[C@@H](C)C(=O)N[C@@H](CCCCN)C(=O)N[C@@H](CC(C)C)C(=O)N[C@@H](CCCCN)C(N)=O [QUB-1599] (H-FLALAGKQEAIAKLK-NH2)
> 128 µM: MBC (P. aeruginosa ATCC 27853) | MIC (P. aeruginosa ATCC 27853) | MBC (C. albicans NCTC 10231) | MIC (C. albicans NCTC 10231) | MBC (E. coli NCTC 10418) | MIC (E. coli NCTC 10418) | MBC (E. faecalis NCTC 12697) | MIC (E. faecalis NCTC 12697) | MBC (MRSA NCTC 12493) | MIC (MRSA NCTC 12493) | MBC (K. pneumoniae ATCC 43816) | MIC (K. pneumoniae ATCC 43816) | MBC (S. aureus NCTC 10788 [3]) | MIC (S. aureus NCTC 10788 [3]) | MBC (S. aureus NCTC 10788 [4]) | MIC (S. aureus NCTC 10788 [4])
>128/>128 µM: MBEC [1] | MBIC [1] | MBEC [2] | MBIC [2]

CC[C@H](C)[C@H](NC(=O)[C@H](C)NC(=O)CNC(=O)CNC(=O)[C@@H](NC(=O)[C@H](CC(C)C)NC(=O)[C@H](C)NC(=O)[C@H](CC(C)C)NC(=O)[C@H](C)NC(=O)[C@H](CC(C)C)NC(=O)[C@@H](N)Cc1ccccc1)[C@@H](C)CC)C(=O)N[C@@H](C)C(=O)N[C@@H](CCCCN)C(=O)N[C@@H](CC(C)C)C(=O)N[C@@H](CCCCN)C(N)=O [QUB-1498] (H-FLALALIGGAIAKLK-NH2)
>128/>128 µM: MBEC [1] | MBIC [1]
32 µM: MIC (C. albicans NCTC 10231) | MIC (E. coli NCTC 10418) | MIC (E. faecalis NCTC 12697)
64 µM: MBC (E. faecalis NCTC 12697)
> 128 µM: MBC (P. aeruginosa ATCC 27853) | MIC (P. aeruginosa ATCC 27853) | MBC (C. albicans NCTC 10231) | MBC (E. coli NCTC 10418) | MBC (MRSA NCTC 12493) | MBC (K. pneumoniae ATCC 43816) | MIC (K. pneumoniae ATCC 43816)
16 µM: MBC (S. aureus NCTC 10788 [3]) | MIC (S. aureus NCTC 10788 [3])
128 µM: MBEC [2] | MIC (MRSA NCTC 12493)

CC[C@H](C)[C@H](NC(=O)[C@H](C)NC(=O)[C@H](CCC(=O)O)NC(=O)[C@H](CCCCN)NC(=O)CNC(=O)[C@H](CC(C)C)NC(=O)[C@H](C)NC(=O)[C@H](CC(C)C)NC(=O)[C@H](C)NC(=O)[C@H](CC(C)C)NC(=O)[C@@H](N)Cc1ccccc1)C(=O)N[C@@H](C)C(=O)N[C@@H](CCCCN)C(=O)N[C@@H](CC(C)C)C(=O)N[C@@H](CCCCN)C(N)=O [QUB-1585] (H-FLALALGKEAIAKLK-NH2)
> 128 µM: MBC (P. aeruginosa ATCC 27853) | MIC (P. aeruginosa ATCC 27853) | MBC (E. faecalis NCTC 12697) | MBC (K. pneumoniae ATCC 43816) | MIC (K. pneumoniae ATCC 43816) | MBC (S. aureus NCTC 10788 [4])
128/128 µM: MBEC [1] | MBIC [1]
128 µM: MBC (C. albicans NCTC 10231) | MBC (E. coli NCTC 10418) | MBEC [2] | MIC (E. faecalis NCTC 12697) | MBC (MRSA NCTC 12493)
32 µM: MIC (S. aureus NCTC 10788 [3])
64 µM: MIC (C. albicans NCTC 10231) | MIC (E. coli NCTC 10418) | MBIC [2] | MIC (MRSA NCTC 12493) | MBC (S. aureus NCTC 10788 [3])

CC[C@H](C)[C@H](NC(=O)[C@H](C)NC(=O)[C@H](CCCCN)NC(=O)[C@@H]1CCCN1C(=O)[C@@H](NC(=O)[C@H](CC(C)C)NC(=O)[C@H](C)NC(=O)[C@H](CC(C)C)NC(=O)[C@H](C)NC(=O)[C@H](CC(C)C)NC(=O)[C@@H](N)Cc1ccccc1)[C@@H](C)CC)C(=O)N[C@@H](C)C(=O)N[C@@H](CCCCN)C(=O)N[C@@H](CC(C)C)C(=O)N[C@@H](CCCCN)C(N)=O [QUB-1609] (H-FLALALIPKAIAKLK-NH2)
128 µM: MBEC [1] | MBEC [2] | MIC (K. pneumoniae ATCC 43816)
8 µM: MIC (E. coli NCTC 10418) | MIC (MRSA NCTC 12493) | MIC (S. aureus NCTC 10788 [3])
> 128 µM: MBC (P. aeruginosa ATCC 27853) | MIC (P. aeruginosa ATCC 27853) | MBC (K. pneumoniae ATCC 43816)
32 µM: MBC (C. albicans NCTC 10231) | MBC (S. aureus NCTC 10788 [3])
64 µM: MBIC [1] | MBC (E. coli NCTC 10418) | MBC (E. faecalis NCTC 12697)
16 µM: MIC (C. albicans NCTC 10231) | MBIC [2] | MIC (E. faecalis NCTC 12697) | MBC (MRSA NCTC 12493)

CC[C@H](C)[C@H](NC(=O)[C@H](C)NC(=O)[C@H](CCCCN)NC(=O)CNC(=O)[C@@H](NC(=O)[C@H](CC(C)C)NC(=O)[C@H](C)NC(=O)[C@H](CC(C)C)NC(=O)[C@H](C)NC(=O)[C@H](CC(C)C)NC(=O)[C@@H](N)Cc1ccccc1)[C@@H](C)CC)C(=O)N[C@@H](C)C(=O)N[C@@H](CCCCN)C(=O)N[C@@H](CC(C)C)C(=O)N[C@@H](CCCCN)C(N)=O [QUB-1570] (H-FLALALIGKAIAKLK-NH2)
32 µM: MBIC [1] | MBC (E. coli NCTC 10418) | MBC (K. pneumoniae ATCC 43816) | MIC (K. pneumoniae ATCC 43816)
4 µM: MBIC [2] | MIC (MRSA NCTC 12493)
16 µM: MIC (E. coli NCTC 10418)
2 µM: MIC (S. aureus NCTC 10788 [3])
64 µM: MBEC [1]
> 128 µM: MBC (P. aeruginosa ATCC 27853) | MIC (P. aeruginosa ATCC 27853)
8 µM: MBC (C. albicans NCTC 10231) | MIC (C. albicans NCTC 10231) | MBC (E. faecalis NCTC 12697) | MIC (E. faecalis NCTC 12697) | MBC (MRSA NCTC 12493) | MBC (S. aureus NCTC 10788 [3])

CC[C@H](C)[C@H](NC(=O)[C@H](C)NC(=O)[C@H](CCC(=O)O)NC(=O)[C@H](CCC(N)=O)NC(=O)[C@@H](NC(=O)[C@H](CC(C)C)NC(=O)[C@H](CCCCN)NC(=O)CNC(=O)[C@H](C)NC(=O)[C@H](CC(C)C)NC(=O)[C@@H](N)Cc1ccccc1)[C@@H](C)CC)C(=O)N[C@@H](C)C(=O)N[C@@H](CCCCN)C(=O)N[C@@H](CC(C)C)C(=O)N[C@@H](CCCCN)C(N)=O [QUB-1643] (H-FLAGKLIQEAIAKLK-NH2)
128/>128 µM: MBEC [2] | MBIC [2]
64 µM: MIC (C. albicans NCTC 10231) | MIC (MRSA NCTC 12493) | MBC (S. aureus NCTC 10788 [3])
> 128 µM: MBC (P. aeruginosa ATCC 27853) | MIC (P. aeruginosa ATCC 27853) | MBC (E. coli NCTC 10418) | MBC (E. faecalis NCTC 12697) | MBC (K. pneumoniae ATCC 43816) | MIC (K. pneumoniae ATCC 43816)
128 µM: MBC (C. albicans NCTC 10231) | MIC (E. coli NCTC 10418) | MIC (E. faecalis NCTC 12697) | MBC (MRSA NCTC 12493)
32 µM: MIC (S. aureus NCTC 10788 [3])
>128/>128 µM: MBEC [1] | MBIC [1]
